Experimental data from patent US20180256673A1, “METHODS FOR TREATING FUNGAL INFECTIONS” (priority 2015, published 2018).
≈ marks a conversion by molar mass, not a printed value. Like-named read-outs stand apart in the source and are kept apart here.

How the values were obtained:
Candida albicans = assay: Broth microdilution of invasive fungal isolates (CLSI M27-A3/M38-A2); assay type: cell-based; settings: CLSI breakpoints
[1] = tested on: C. tropicalis vaginal isolates; assay: Susceptibility testing of VVC clinical isolates at pH 7 and 4 (CLSI M27-A3); assay type: cell-based; settings: Candida tropicalis, 13 isolates, read-out: MIC90
[2] = tested on: C. albicans vaginal isolates; assay: as above; assay type: cell-based, Candida albicans; settings: for Number of isolates at MIC 0.25 μg/mL / Number of isolates at MIC 0.5 μg/mL / Number of isolates at MIC 1 μg/mL / Number of isolates at MIC 2 μg/mL / Number of isolates at MIC 4 μg/mL / Number of isolates at MIC ≥4 μg/mL / Number of isolates at MIC 0.125 μg/mL: 60 VVC isolates; for MIC / MIC90: Candida albicans; for MIC: read-out: MIC; for MIC90: 60 isolates, read-out: MIC90
[3] = tested on: azole-resistant Candida albicans R357 strain; assay: microbe, parasite or virus in culture; assay type: cell-based

SMILES: OC(Cn1cncn1)(Cn1cncn1)c1ccc(F)cc1F [FLU, fluconazole]
- % of isolates with fluconazole resistance (Candida albicans): 2.0%
- MIC90 ([1]; pH 4, 24 h): 8 µg/mL (≈ 26.1 µM)
- MIC90 ([1]; pH 4, 48 h): > 64 µg/mL
- MIC90 ([1]; pH 7, 24 h): 2 µg/mL (≈ 6.53 µM)
- MIC90 ([1]; pH 7, 48 h): 64 µg/mL (≈ 209 µM)
- Number of isolates at MIC 0.25 μg/mL ([2]; 24 h, pH 4): 35
- Number of isolates at MIC 0.5 μg/mL ([2]; 24 h, pH 4): 13
- Number of isolates at MIC 1 μg/mL ([2]; 24 h, pH 4): 2
- Number of isolates at MIC 2 μg/mL ([2]; 24 h, pH 4): 2
- Number of isolates at MIC 4 μg/mL ([2]; 24 h, pH 4): 1
- Number of isolates at MIC ≥4 μg/mL ([2]; 24 h, pH 4): 7
- Number of isolates at MIC 0.125 μg/mL ([2]; 24 h, pH 7): 25
- Number of isolates at MIC 0.25 μg/mL ([2]; 24 h, pH 7): 19
- Number of isolates at MIC 0.5 μg/mL ([2]; 24 h, pH 7): 7
- Number of isolates at MIC 1 μg/mL ([2]; 24 h, pH 7): 1
- Number of isolates at MIC 2 μg/mL ([2]; 24 h, pH 7): 2
- Number of isolates at MIC ≥4 μg/mL ([2]; 24 h, pH 7): 6
- Number of isolates at MIC 0.5 μg/mL ([2]; 48 h, pH 4): 27
- Number of isolates at MIC 1 μg/mL ([2]; 48 h, pH 4): 13
- Number of isolates at MIC 2 μg/mL ([2]; 48 h, pH 4): 5
- Number of isolates at MIC 4 μg/mL ([2]; 48 h, pH 4): 1
- Number of isolates at MIC ≥4 μg/mL ([2]; 48 h, pH 4): 14
- Number of isolates at MIC 0.125 μg/mL ([2]; 48 h, pH 7): 3
- Number of isolates at MIC 0.25 μg/mL ([2]; 48 h, pH 7): 37
- Number of isolates at MIC 0.5 μg/mL ([2]; 48 h, pH 7): 8
- Number of isolates at MIC 1 μg/mL ([2]; 48 h, pH 7): 2
- Number of isolates at MIC 2 μg/mL ([2]; 48 h, pH 7): 1
- Number of isolates at MIC ≥4 μg/mL ([2]; 48 h, pH 7): 9
- MIC ([2]; 48 h, pH 4, fluconazole-resistant isolate 1, pH 4, 48 h): > 64 µg/mL
- MIC ([2]; 48 h, pH 4, fluconazole-resistant isolate 2, pH 4, 48 h): 32 µg/mL (≈ 104 µM)
- MIC ([2]; 48 h, pH 4, fluconazole-resistant isolate 3, pH 4, 48 h): > 64 µg/mL
- MIC ([2]; 48 h, pH 4, fluconazole-resistant isolate 4, pH 4, 48 h): > 64 µg/mL
- MIC ([2]; 48 h, pH 4, fluconazole-resistant isolate 5, pH 4, 48 h): > 64 µg/mL
- MIC ([2]; 48 h, pH 4, fluconazole-resistant isolate 6, pH 4, 48 h): > 64 µg/mL
- MIC ([2]; 48 h, pH 4, fluconazole-resistant isolate 7, pH 4, 48 h): 32 µg/mL (≈ 104 µM)
- MIC ([2]; 48 h, pH 4, fluconazole-resistant isolate 8, pH 4, 48 h): > 64 µg/mL
- MIC ([2]; 48 h, pH 4, fluconazole-resistant isolate 9, pH 4, 48 h): > 64 µg/mL
- MIC ([2]; 48 h, pH 4, fluconazole-resistant isolate 10, pH 4, 48 h): 64 µg/mL (≈ 209 µM)
- MIC ([2]; 48 h, pH 7, fluconazole-resistant isolate 1, pH 7, 48 h): 16 µg/mL (≈ 52.2 µM)
- MIC ([2]; 48 h, pH 7, fluconazole-resistant isolate 2, pH 7, 48 h): 16 µg/mL (≈ 52.2 µM)
- MIC ([2]; 48 h, pH 7, fluconazole-resistant isolate 3, pH 7, 48 h): 16 µg/mL (≈ 52.2 µM)
- MIC ([2]; 48 h, pH 7, fluconazole-resistant isolate 4, pH 7, 48 h): 8 µg/mL (≈ 26.1 µM)
- MIC ([2]; 48 h, pH 7, fluconazole-resistant isolate 5, pH 7, 48 h): > 64 µg/mL
- MIC ([2]; 48 h, pH 7, fluconazole-resistant isolate 6, pH 7, 48 h): 0.25 µg/mL (≈ 0.816 µM)
- MIC ([2]; 48 h, pH 7, fluconazole-resistant isolate 7, pH 7, 48 h): 16 µg/mL (≈ 52.2 µM)
- MIC ([2]; 48 h, pH 7, fluconazole-resistant isolate 8, pH 7, 48 h): 32 µg/mL (≈ 104 µM)
- MIC ([2]; 48 h, pH 7, fluconazole-resistant isolate 9, pH 7, 48 h): > 64 µg/mL
- MIC ([2]; 48 h, pH 7, fluconazole-resistant isolate 10, pH 7, 48 h): 16 µg/mL (≈ 52.2 µM)
- MIC90 ([2]; pH 4, 24 h): 8 µg/mL (≈ 26.1 µM)
- MIC90 ([2]; pH 4, 48 h): > 64 µg/mL
- MIC90 ([2]; pH 7, 24 h): 8 µg/mL (≈ 26.1 µM)
- MIC90 ([2]; pH 7, 48 h): 16 µg/mL (≈ 52.2 µM)
- Susceptibility (CLSI) ([3]; C. albicans R357): R
- MIC ([3]; Candida albicans): > 64 µg/mL
